Results as given in US20250213705A1, “PSMA TARGETING LIGANDS AND METHODS OF USE” (Bright Peak Therapeutics AG, priority 2023, published 2025).

What was measured:
human FOLH1 = human FOLH1 (Homo sapiens (Human), UniProt Q04609); assay: SPR analysis of binding kinetics to biotinylated FOLH1 (Biacore 8K); details: ligand PSMA; for Kd: kinetic 1:1 binding model; for Kon: association rate; for koff: dissociation rate
Method: The interaction of PSMA-binding variants with human FOLH1 was measured with Surface Plasmon Resonance (SPR) technology. Biotinylated FOLH1 was captured at a concentration of 30 μg/mL onto a Streptavidin chip.
Binding kinetics of the analytes were measured with a Biacore 8K instrument in two-fold serial dilutions starting at 500 nM down to 1.95 nM in single cycle kinetic measurements. After each cycle, needles were washed with 50% DMSO. To measure the association to the FOLH1 protein, the samples were injected with a flow rate of 30 μL/min for 90 s, followed by 1200 s buffer only to detect the dissociation. The used running buffer was 1×PBS with 0.05% Tween20 and 2% DMSO. The relative response units (RU, Y-axis) are plotted against time (s, X-axis) and analyzed in a kinetic 1:1 binding model.
In a different setup, biotinylated FOLH1 was captured at a concentration of 0.8 μg/mL and the running buffer was 1×PBS with 0.05% Tween20.

[1] = target: Recombinant Human PSMA/FOLH1 Protein (Homo sapiens (Human), UniProt Q04609); assay: Inhibition assay (Amplex Red glutamic acid/glutamate oxidase, NAAG substrate); type: biochemical; details: Target PSMA, average of N replicates; for IC50: PSMA 5 nM, NAAG 40 μM; for Ki: calculated based on Cheng-Prusoff equation
Outline: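 NAAG hydrolysis by recombinant human PSMA, with released glutamate read through a coupled Amplex Red system (glutamate oxidase, HRP, glutamate-pyruvate transaminase, 200 μM L-alanine in the working solution). EC50 fitted and Ki derived by Cheng-Prusoff.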

[2] = target: PSMA+ cells (22rv1 human prostate carcinoma epithelial cell line) (Homo sapiens (Human), UniProt Q04609); assay: Cellular competition assay on PSMA+ cells (flow cytometry, competition with BPT1288), 22rv1; type: cell-based
Sequence of PSMA+ cells (22rv1 human prostate carcinoma epithelial cell line) (Q04609 whole entry): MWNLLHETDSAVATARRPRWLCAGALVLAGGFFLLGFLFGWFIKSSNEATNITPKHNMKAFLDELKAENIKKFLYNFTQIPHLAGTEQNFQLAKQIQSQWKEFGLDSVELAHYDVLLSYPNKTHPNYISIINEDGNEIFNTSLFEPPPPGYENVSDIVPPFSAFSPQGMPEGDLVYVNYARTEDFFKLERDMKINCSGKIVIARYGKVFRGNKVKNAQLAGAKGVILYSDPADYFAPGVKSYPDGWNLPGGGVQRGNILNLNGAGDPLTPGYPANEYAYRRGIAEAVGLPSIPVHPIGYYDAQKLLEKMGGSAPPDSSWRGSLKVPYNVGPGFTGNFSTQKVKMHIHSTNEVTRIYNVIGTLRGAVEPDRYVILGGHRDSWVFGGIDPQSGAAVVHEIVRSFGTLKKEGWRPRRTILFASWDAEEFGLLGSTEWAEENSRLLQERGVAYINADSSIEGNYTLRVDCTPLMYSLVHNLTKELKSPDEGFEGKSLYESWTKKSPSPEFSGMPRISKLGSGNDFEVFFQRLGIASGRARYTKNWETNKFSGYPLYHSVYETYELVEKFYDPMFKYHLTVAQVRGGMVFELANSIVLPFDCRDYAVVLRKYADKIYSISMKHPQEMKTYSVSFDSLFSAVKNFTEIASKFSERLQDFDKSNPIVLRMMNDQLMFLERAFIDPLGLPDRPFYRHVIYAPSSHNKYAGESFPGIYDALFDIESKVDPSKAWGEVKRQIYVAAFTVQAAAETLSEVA
Method: On the day of experiment, cells were harvested with Trypsin and washed with assay buffer consisting of 1×PBS supplemented with 2% FBS and stained with viability dye (Biolegend Zombie NIR) diluted 1:1000 in PBS for 20 minutes. After washing and counting, cells were seeded at 50,000 cells/well in a 96 well V bottom polypropylene plate and kept on ice. Twelve 4-fold serial dilutions of analytes were prepared in cold assay buffer and added to cell suspension.
Single-cell AlexaFluor488 fluorescence emission was measured with a flow cytometer and plotted against analyte concentration in X-axis. Half maximal inhibition concentrations (IC50) were calculated based on a variable slope and four parameter analysis using GraphPad PRISM software

Sequence of human FOLH1 (Q04609 whole entry): as above
Sequence of Recombinant Human PSMA/FOLH1 Protein (Q04609 whole entry): as above

Compound	Kd (human FOLH1) [nM]	IC50 [1] [nM]	Ki [1] [nM]	IC50 [2] [nM]	Kon (human FOLH1)	koff (human FOLH1) [s⁻¹]
CC(=O)NCCOCCOCCOCCC(=O)NC[C@H]1CC[C@H](C(=O)N[C@@H](Cc2ccc3ccccc3c2)C(=O)NCCCC[C@H](NC(=O)N[C@@H](CCC(=O)O)C(=O)O)C(=O)O)CC1 [Compound 8]	0.654	29.3	0.21	2.65	–	–
CC(=O)NCCOCCOCCOCCC(=O)N(CCCCOc1cc(C#N)cc(C#N)c1)CC(=O)N[C@@H](Cc1ccc2ccccc2c1)C(=O)NCCCC[C@H](NC(=O)N[C@@H](CCC(=O)O)C(=O)O)C(=O)O [Compound 87]	0.5	1480	10.6	–	272000 1.ms	0.000136
CC(=O)NCCOCCOCCOCCC(=O)N(CCCCOc1cc(C(F)(F)F)cc(C(F)(F)F)c1)CC(=O)N[C@@H](Cc1ccc2ccccc2c1)C(=O)NCCCC[C@H](NC(=O)N[C@@H](CCC(=O)O)C(=O)O)C(=O)O [Compound 88]	1.53	63.3	0.452	–	215000 1.ms	0.000329
CC(=O)NCCOCCOCCOCCC(=O)N1C[C@H](NC(=O)COc2cc(C#N)cc(C#N)c2)C[C@H]1C(=O)NCC(=O)N[C@@H](Cc1ccc2ccccc2c1)C(=O)NCCCC[C@H](NC(=O)N[C@@H](CCC(=O)O)C(=O)O)C(=O)O [Compound 89]	2.58	93.5	0.669	–	121000 1.ms	0.000311
CC(=O)NCCOCCOCCOCCC(=O)N[C@@H]1C[C@@H](C(=O)NCC(=O)N[C@@H](Cc2ccc3ccccc3c2)C(=O)NCCCC[C@H](NC(=O)N[C@@H](CCC(=O)O)C(=O)O)C(=O)O)N(C(=O)COc2cc(C#N)cc(C#N)c2)C1 [Compound 90]	1.27	87.6	0.626	–	183000 1.ms	0.000232
CC(=O)NCCOCCOCCOCCC(=O)N[C@@H](Cc1cccc(C(=O)O)c1)C(=O)NCCC(=O)N[C@@H](Cc1ccc2ccccc2c1)C(=O)NCCCC[C@H](NC(=O)N[C@@H](CCC(=O)O)C(=O)O)C(=O)O [Compound 93]	1.73	9.6	0.0686	–	149000 1.ms	0.000258
CC(=O)NCCOCCOCCOCCC(=O)N[C@@H](Cc1ccc(C(=O)O)cc1)C(=O)NCCC(=O)N[C@@H](Cc1ccc2ccccc2c1)C(=O)NCCCC[C@H](NC(=O)N[C@@H](CCC(=O)O)C(=O)O)C(=O)O [Compound 95]	1.95	11.5	0.0823	–	124000 1.ms	0.000242
CC(=O)NCCOCCOCCOCCC(=O)N[C@@H](Cc1ccc(C(=O)O)cc1)C(=O)NCCCC(=O)N[C@@H](Cc1ccc2ccccc2c1)C(=O)NCCCC[C@H](NC(=O)N[C@@H](CCC(=O)O)C(=O)O)C(=O)O [Compound 97]	3.64	10.8	0.077	–	90100 1.ms	0.000328
